Publication PMC6881182 (Nature microbiology, 2019)

Assays:
[1] = target: EcNanA (E. coli Neu5Ac lyase/aldolase) (Escherichia coli, UniProt P0A6L4); experiment: lactate dehydrogenase-coupled aldolase assay; format: biochemical
[2] = target: T1, RgNanA (RUMGNA_02692), sialic acid aldolase (Mediterraneibacter gnavus, UniProt A7B555, K177A); experiment: X-ray crystal structure; format: binding
T1 sequence (A7B555 11-315 K177A): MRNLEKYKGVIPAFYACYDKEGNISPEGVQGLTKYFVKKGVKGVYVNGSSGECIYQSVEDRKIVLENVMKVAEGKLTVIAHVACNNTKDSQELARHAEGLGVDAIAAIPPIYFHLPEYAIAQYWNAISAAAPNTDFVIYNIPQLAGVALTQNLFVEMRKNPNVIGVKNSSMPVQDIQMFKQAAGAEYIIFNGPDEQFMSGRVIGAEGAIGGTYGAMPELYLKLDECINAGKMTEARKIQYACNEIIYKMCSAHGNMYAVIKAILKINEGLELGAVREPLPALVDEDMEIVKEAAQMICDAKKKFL

[3] = target: RgNanOx (RUMGNA_02695), oxidoreductase (Mediterraneibacter gnavus, UniProt A7B558); experiment: HPLC of DMB-labelled product with and without cofactor; format: biochemical
[4] = system: CC(=O)N[C@H]1[C@H]2O[C@@](C(=O)O)(C[C@@H]1O)O[C@@H]2[C@H](O)CO; experiment: purified protein; conditions: NAD+ or NADH
purified protein = substrate: CC(=O)N[C@@H]1[C@@H](O)CC(O)(C(=O)O)O[C@H]1C(O)C(O)CO; experiment: purified protein

With `CC(=O)N[C@@H]1[C@@H](O)CC(O)(C(=O)O)O[C@H]1C(O)C(O)CO` (stereo partly drawn) [Neu5Ac] as the molecule, how does the “lactate dehydrogenase-coupled aldolase assay (control enzyme)” value [1] read?
Its value is “RgNanA and EcNanA (E. coli Neu5Ac lyase/aldolase used as a control) showed activity against Neu5Ac”.

What about the “X-ray crystal structure (5 mM Neu5Ac soak of inactive mutant)” value [2] of the same molecule?
The value was “complex between an inactive mutant, RgNanA K167A, and Neu5Ac showed Neu5Ac in the open-chain ketone form”.

How did the “HPLC of DMB-labelled product with and without cofactor (500 μM)” value [3] turn out when `NC(=O)c1ccc[n+]([C@@H]2O[C@H](COP(=O)([O-])OP(=O)(O)OC[C@H]3O[C@@H](n4cnc5c(N)ncnc54)[C@H](O)[C@@H]3O)[C@@H](O)[C@H]2O)c1` [NAD^+] was run?
The value was “Neu5Ac was produced in the presence of NAD^+ or NADH, but not in the presence of FAD”.

For “RgNanOx (RUMGNA_02695), oxidoreductase (Mediterraneibacter gnavus ATCC 29149)”, which Km [4] is on record?
The Km was 0.074 ± 0.014 mM.

How did the “HPLC of DMB-labelled product with and without cofactor (500 μM)” value [3] turn out when `NC(=O)C1=CN([C@@H]2O[C@H](COP(=O)(O)OP(=O)(O)OC[C@H]3O[C@@H](n4cnc5c(N)ncnc54)[C@H](O)[C@@H]3O)[C@@H](O)[C@H]2O)C=CC1` [NADH] was run?
The value was “Neu5Ac was produced in the presence of NAD^+ or NADH, but not in the presence of FAD”.

B1: RgNanA (RUMGNA_02692), sialic acid aldolase (Mediterraneibacter gnavus ATCC 29149) (protein)
chain: MAFMKQRSKTMRNLEKYKGVIPAFYACYDKEGNISPEGVQGLTKYFVKKGVKGVYVNGSSGECIYQSVEDRKIVLENVMKVAEGKLTVIAHVACNNTKDSQELARHAEGLGVDAIAAIPPIYFHLPEYAIAQYWNAISAAAPNTDFVIYNIPQLAGVALTQNLFVEMRKNPNVIGVKNSSMPVQDIQMFKQAAGAEYIIFNGPDEQFMSGRVIGAEGAIGGTYGAMPELYLKLDECINAGKMTEARKIQYACNEIIYKMCSAHGNMYAVIKAILKINEGLELGAVREPLPALVDEDMEIVKEAAQMICDAKKKFL
With B1 as the molecule, how does the Km (purified protein) read?
The Km was 1.473 ± 0.098 mM.
